Laboratory results: patent US5300672A (priority 1992, dated 1994)
Like-named read-outs stand apart in the source and are kept apart here.

How the values were obtained:
[1] = tested on: Erysiphe graminis (f. sp. tritici); experiment: whole plant or invertebrate; type: in vivo
[2] = tested on: Puccinia graminis (f. sp. tritici Race 15B-2); experiment: whole plant or invertebrate; type: in vivo; details: for pest or weed control at 200 ppm / pest or weed control at 100 ppm: Puccinia graminis, 336 h, read-out: % Control WSR
[3] = tested on: Pseudoperonospora cubensis; experiment: whole plant or invertebrate; type: in vivo; details: for pest or weed control at 50 ppm / pest or weed control at 12 ppm / pest or weed control at 200 ppm: Pseudoperonospora cubensis, in Cucumis sativus, 168 h, read-out: % Control CDM
[4] = tested on: Pellicularia filamentosa (f. sp. sasiki); experiment: whole plant or invertebrate; type: in vivo
Piricularia oryzae = experiment: whole plant or invertebrate; type: in vivo; details: for pest or weed control at 200 ppm / pest or weed control at 100 ppm / pest or weed control at 50 ppm: Pyricularia oryzae; for pest or weed control at 100 ppm: read-out: % Control RB, application rate 100 ppm; for pest or weed control at 50 ppm: read-out: % Control RB, application rate 50 ppm
[5] = tested on: Puccinia recondita (f. sp. tritici Races PKB and PLD); experiment: whole plant or invertebrate; type: in vivo; details: for % Control WLR: in vivo
Pseudomonas fluorescens = experiment: Alternate Minimum Inhibitory Concentrations Test (Table 4), Ps.fl; type: cell-based; details: Table 4 alternate test, 250 ppm to 0.8 ppm in TSB, 72 hours, 30° C.; for MIC: Pseudomonas fluorescens, read-out: MIC Ps.fl
How it was run: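 Broth microdilution MIC in TSB: compound (from acetone stock) serially diluted 1:1 from 250 ppm to 0.8 ppm, inoculated with diluted 24 h culture. After 3 days at 30 °C, the lowest concentration with no growth was recorded as MIC.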

Phytophthora infestans = experiment: whole plant or invertebrate; type: in vivo; details: for pest or weed control at 200 ppm / pest or weed control at 100 ppm / pest or weed control at 25 ppm: Phytophthora infestans, in Solanum lycopersicum, 96 h; for pest or weed control at 25 ppm: read-out: % Control TLB, application rate 25 ppm
[6] = Blumeria graminis, read-out: % Control WPM
[7] = read-out: % Control RB, application rate 200 ppm
[8] = Puccinia recondita, 240 h, read-out: % Control WLR

Row | SMILES | pest or weed control at 200 ppm [1, 6] [%] | pest or weed control at 200 ppm [2] [%] | pest or weed control at 50 ppm [3] [%] | pest or weed control at 200 ppm (Piricularia oryzae; [7]) [%] | pest or weed control at 200 ppm [5, 8] [%] | MIC (Pseudomonas fluorescens) [mg/L] | pest or weed control at 200 ppm (Phytophthora infestans; read-out: % Control TLB) [%] | pest or weed control at 100 ppm [2] [%] | pest or weed control at 200 ppm ([4]; 120 h, read-out: % Control RSB) [%] | pest or weed control at 100 ppm [1, 6] [%] | pest or weed control at 100 ppm ([4]; 120 h, read-out: % Control RSB) [%] | pest or weed control at 100 ppm (Phytophthora infestans; read-out: % Control TLB) [%] | pest or weed control at 100 ppm [5, 8] [%] | further results
1 | C/C=C/C=C/C(=O)S/C=C\C(=O)NCCCCCCCC [Compound 59, N-octyl-cis-3-[(trans,trans-2,4-hexadienoyl)thio]acrylamide] | 0 | 50 | 70 | 0 | 0 | > 250 | 80 | – | – | – | – | – | – | pest or weed control at 50 ppm ([4]; 120 h, read-out: % Control RSB): 50%
2 | CCCCCCCCNC(=O)/C=C\SC(=O)c1ccc2ccccc2c1 [Compound 56, N-octyl-cis-3-[(2-naphthanoyl)thio]acrylamide] | 0 | 75 | – | 0 | 0 | > 250 | 80 | – | – | – | – | – | – | pest or weed control at 12 ppm [3]: 50%; pest or weed control at 50 ppm ([4]; 120 h, read-out: % Control RSB): 80%
3 | CCCCCCCCNC(=O)/C=C\SC(=O)c1cccc(OC)c1[N+](=O)[O-] [Compound 98, N-octyl-cis-3-[(2-nitro-3-methoxybenzoyl)thio]acrylamide] | – | – | – | – | 50 | > 250 | 90 | 0 | 0 | – | – | – | – | pest or weed control at 50 ppm [1, 6]: 0%; pest or weed control at 200 ppm [3]: 50%; pest or weed control at 200 ppm (Piricularia oryzae; read-out: % Control RB): 99%
4 | CCCCCCCCNC(=O)/C=C\SC(=O)C(=O)OC [Compound 30, N-octyl-cis-3-(methyloxalylthio)acrylamide] | – | 75 | 70 | – | – | > 250 | – | – | – | 0 | 0 | 80 | – | pest or weed control at 100 ppm (Piricularia oryzae): 0%; pest or weed control at 25 ppm [5, 8]: 50%
5 | CCCCCCCCNC(=O)/C=C\SC(=O)/C=C/c1ccco1 [Compound 68, N-octyl-cis-3-[(trans-3-(2-furan)propenoyl)thio]acrylamide] | 0 | 90 | – | – | 0 | > 250 | 90 | – | 0 | – | – | – | – | pest or weed control at 12 ppm [3]: 70%; pest or weed control at 50 ppm (Piricularia oryzae): 80%
6 | CCCCCCCCNC(=O)/C=C\SC(=O)COc1ccccc1 [Compound 26, N-octyl-cis-3-(phenoxyacetylthio)acrylamide] | – | – | 85 | – | – | > 250 | – | 90 | – | 0 | 0 | 90 | 0 | pest or weed control at 100 ppm (Piricularia oryzae): 80%
7 | CCCCCCCCNC(=O)/C=C\SC(=O)CC1C=CCC1 (stereo not drawn) [Compound 93] | 75 | – | – | – | 50 | > 250 | 90 | 50 | 0 | – | – | – | – | pest or weed control at 200 ppm [3]: 99%; pest or weed control at 50 ppm (Piricularia oryzae): 90%
8 | CCCCCCCCNC(=O)/C=C\SC(=O)c1cccc(CCl)c1 [Compound 22, N-octyl-cis-3-[(3-(chloromethyl)benzoyl)thio]acrylamide] | – | 75 | 99 | – | – | > 250 | – | – | – | 0 | 0 | – | 0 | pest or weed control at 100 ppm (Piricularia oryzae): 0%; pest or weed control at 25 ppm (Phytophthora infestans): 95%
9 | CCCCCCCCNC(=O)/C=C\SC(=O)CCC(=O)OC [Compound 51, N-octyl-cis-3-[(3-methoxycarbonylpropanoyl)thio]acrylamide] | – | 90 | 85 | 0 | – | > 250 | – | – | – | 0 | – | 80 | 0 | pest or weed control at 25 ppm ([4]; 120 h, read-out: % Control RSB): 90%
10 | CCCCCCCCNC(=O)/C=C\SC(=O)CCc1ccccc1 [Compound 69, N-octyl-cis-3-[(3-phenylpropanoyl)thio]acrylamide] | 0 | 75 | 85 | 80 | – | > 250 | – | – | 0 | – | – | – | – | % Control WLR [5]: 0 % Control; pest or weed control at 200 ppm (Phytophthora infestans; read-out: % Control TLB, application rate 200 ppm): 100%
11 | CCCCCCCCNC(=O)/C=C\SC(=O)Cc1ccccc1 [Compound 12, N-octyl-cis-3-(phenylacetylthio)acrylamide] | – | 90 | 85 | 90 | – | > 250 | – | – | – | 0 | 0 | 90 | 0 | –
12 | CCCCCCCCNC(=O)/C=C\SC(=O)C1=CC(=O)CC(C)(C)O1 [Compound 89, N-octyl-cis-3-[(3,4-dihydro-2,2-dimethyl-4-oxo-2H-pyran-6-carbonyl)thio]acrylamide] | 0 | – | – | – | 90 | > 250 | 90 | 80 | 0 | – | – | – | – | pest or weed control at 200 ppm [3]: 70%; pest or weed control at 200 ppm (Piricularia oryzae; read-out: % Control RB): 95%
13 | CCCCCCCCNC(=O)/C=C\SC(=O)c1ccc(F)cc1 [Compound 3, N-octyl-cis-3-[(4-fluorobenzoyl)thio]acrylamide] | – | 75 | 85 | – | – | > 250 | – | – | – | 0 | 0 | 90 | 0 | pest or weed control at 100 ppm (Piricularia oryzae): 80%
14 | CCCCCC#CC(=O)S/C=C\C(=O)NCCCCCCCC [Compound 86, N-octyl-cis-3-[(2-octynoyl)thio]acrylamide] | 0 | – | – | 0 | 50 | > 250 | 90 | 0 | 0 | – | – | – | – | pest or weed control at 200 ppm [3]: 85%
15 | CCCCCCCCNC(=O)C=CSC(CO)COc1ccccc1 (stereo not drawn) [Compound 40, N-octyl-cis-3-[(1-hydroxy-3-phenoxy-2-propane)thio]acrylamide] | – | – | – | – | – | – | – | – | – | – | – | – | – | % Control WPM ([1]; in vivo): 50 % Control; % Control WSR ([2]; application rate 200 ppm): 75 % Control; % Control CDM ([3]; in vivo): 85 % Control; % Control RSB ([4]; in vivo): 0 % Control; % Control RB (Piricularia oryzae; in vivo): 75 % Control; % Control WLR [5]: 0 % Control; MIC Ps.fl (Pseudomonas fluorescens): > 250 Ppm; % Control TLB (Phytophthora infestans; application rate 100 ppm): 95 % Control
16 | CCCCCCCCNC(=O)/C=C\SC(=O)c1cc(Cl)sc1Cl [Compound 18, N-octyl-cis-3-[(2,5-dichloro-3-thiophene)carbonylthio]acrylamide] | – | 50 | 70 | – | – | > 250 | – | – | – | 0 | 0 | – | 0 | pest or weed control at 100 ppm (Piricularia oryzae): 50%; pest or weed control at 25 ppm (Phytophthora infestans): 100%
17 | CCCCCCCCNC(=O)/C=C\SC(=O)c1ccc([N+](=O)[O-])c([N+](=O)[O-])c1 [Compound 112, N-octyl-cis-3-[(3,4-dinitrobenzoyl)thio]acrylamide] | 0 | – | – | 0 | 50 | > 250 | – | 50 | – | – | – | 90 | – | pest or weed control at 200 ppm [3]: 99%
